The values that follow come from publication PMC8467595, “Protective Effects of Linearthin and Other Chalcone Derivatives from Aspalathus linearis (Rooibos) against UVB Induced Oxidative Stress and Toxicity in Human Skin Cells” (Plants, 2021).

In brackets after ≈: the same amount, converted by molar mass. Where two headings read alike, the source gives them in different places.

The IC50 is the concentration at which inhibition is half-maximal.

The subject of test [1] is HaCaT cells. The test is described as follows: MTT cytotoxicity assay, pre-treatment 4 or 24 h with or without UVB irradiation. In kind it is cell-based. The conditions noted are these: Homo sapiens, read-out: IC50 (50% inhibition of viable cell number, MTT). The method, then:
(§1) The human epidermal keratinocytes (HaCaT) and melanoma (SK-MEL-1) cells used in this study were cultured in Roswell Park Memorial Institute (RPMI) 1640 media supplemented with antibiotics (100 U/mL streptomycin, 100 U/mL penicillin) and fetal calf serum (FCS, 10%). Cells were maintained at 37 °C in a humidified atmosphere of 5% CO2.
(§2) For experiments, before exposure to UVB, the cells were conditioned with various concentrations of total extract and isolated compounds thereof for 4 or 24 h. These periods were selected based on the half-life of the compounds as well as previous studies. Exposure to UVB was done according to a previous study. Cells were seeded (3 × 10^4) in 96-well tissue culture microtitre plates. Cell culture media was aspirated and the cells were overlayed with PBS. The cells were exposed to UVB light (80 mJ/cm^2) without the plastic lid. A UVIlink UV Crosslinker (UVitek Ltd., Aberdeen, UK) was fitted with six 8 Watt UV tubes giving a wavelength of 302 nm (Vilber Lourmat, Collégien, France). Control plates were not exposed to UVB light.
(§3) The MTT assay has been extensively used for determining the cytoprotective effects of several phytochemicals. To monitor cell viability as a measure of metabolic activity the MTT assay was performed. The conditioned HaCat and SK-MEL-1 cells (15,000 cells per well in 96-well plates) were incubated for 2 h using 100 μL MTT solution (5 mg/mL) after PBS washing. The MTT formazan crystals were then solubilised by DMSO resuspension. The optical density of the formazan product was read at 570 nm wavelength with a reference wavelength of 690 nm. The half-maximal inhibitory concentration (IC50) was determined.
Background: Tetrazolium assays rely on reduction of a dye to a coloured formazan, in cell work by metabolically active cells.

Test [2] relates to SK-MEL-1 cells. The test is described as above. It counts as cell-based. Conditions: Homo sapiens, read-out: IC50 (50% inhibition of viable cell number, MTT). The method, then: as §1, §2, §3
Test [3] deals with SK-MEL-1 cells. Description: ATP bioluminescent assay (Cell Titer-Glo). It counts as cell-based, human. The conditions noted are these: SK-MEL-1, 10 µg/mL, 24-h pre-treatment. On the technique in general: In ATP-based viability assays light output follows the ATP content of the culture.
Protocol: For experiments, before exposure to UVB, the cells were conditioned with various concentrations of total extract and isolated compounds thereof for 4 or 24 h. These periods were selected based on the half-life of the compounds as well as previous studies [22, 32]. Exposure to UVB was done according to a previous study. Cells were seeded (3 × 10^4) in 96-well tissue culture microtitre plates. Cell culture media was aspirated and the cells were overlayed with PBS. The cells were exposed to UVB light (80 mJ/cm^2) without the plastic lid. A UVIlink UV Crosslinker (UVitek Ltd., Aberdeen, UK) was fitted with six 8 Watt UV tubes giving a wavelength of 302 nm (Vilber Lourmat, Collégien, France) [22]. Control plates were not exposed to UVB light. The ATP bioluminescent assay was used to quantify cellular ATP. The Cell Titer-Glo® assay (Promega, Madison, WI, USA) was carried out according to the manufacturer’s instructions. Cells were seeded in a white microtitre plate (20,000 cells per well) to which the ATP Cell Titer-Glo® Reagent was added (50 μL). The plate was incubated for 30 min at room temperature (RT) in the dark. Luminescence was measured on a Multiskan Spectrum plate reader (Thermo Fisher Scientific, Waltham, MA, USA). Luminescence is proportional to ATP levels and expressed as relative light units (RLU).
For test [4], the system named is HaCaT cells. Description: Caspase 3/7 activation (ApoTox-Glo Triplex Assay). The conditions noted are these: UVB irradiated cells. It counts as cell-based, human. On the procedure:
as §2
(§4) The ApoTox-Glo™ Triplex Assay (Promega) was used to assess cytotoxicity and apoptosis events in the same cell-based assay well according to the manufacturer’s instructions with no deviation from standard protocol. Both luminescence and fluorescence were detected using a plate reader.

Test [5] relates to SK-MEL-1 cells. Description: Caspase 3/7 activation (ApoTox-Glo Triplex Assay). In kind it is cell-based, human. The conditions noted are these: SK-MEL-1, UVB irradiated cells. The method, then:
as §2, §4

Test [6] deals with HaCaT cells. The test is described as follows: TBARS lipid peroxidation (MDA). It counts as cell-based, human. The conditions noted are these: for MDA levels (lipid peroxidation): HaCaT. The method, then:
as §2
(§5) The thiobarbituric acid reactive substances (TBARS) was used to quantify the levels of melondialdehyde (a marker of lipid peroxidation) in the supernatant of UVB irradiated and non-irradiated cells. The experiments were conducted as previously described. The optical density was measured at 532 nm with a reference wavelength of 600 nm using a plate reader. The mean optical density of five samples per treatment was calculated and divided by the absorption coefficient (156 mM^−1). Results were expressed as MDA concentration (μM). Reduced glutathione (GSH) was quantified using an in-house protocol with minor modifications. After the addition of reagents, the cells were lysed to allow quantification of GSH colourimetrically using a plate reader.

Test [7] has as its system SK-MEL-1 cells. The test is described as follows: TBARS lipid peroxidation (MDA). In kind it is cell-based, human. Conditions: SK-MEL-1, 24-h pre-treatment, after UVB exposure.
Protocol: For experiments, before exposure to UVB, the cells were conditioned with various concentrations of total extract and isolated compounds thereof for 4 or 24 h. […] Exposure to UVB was done according to a previous study. Cells were seeded (3 × 10^4) in 96-well tissue culture microtitre plates. Cell culture media was aspirated and the cells were overlayed with PBS. The cells were exposed to UVB light (80 mJ/cm^2) without the plastic lid. A UVIlink UV Crosslinker (UVitek Ltd., Aberdeen, UK) was fitted with six 8 Watt UV tubes giving a wavelength of 302 nm (Vilber Lourmat, Collégien, France) [22]. Control plates were not exposed to UVB light. The thiobarbituric acid reactive substances (TBARS) was used to quantify the levels of melondialdehyde (a marker of lipid peroxidation) in the supernatant of UVB irradiated and non-irradiated cells. The experiments were conducted as previously described [45]. The optical density was measured at 532 nm with a reference wavelength of 600 nm using a plate reader. The mean optical density of five samples per treatment was calculated and divided by the absorption coefficient (156 mM^−1). Results were expressed as MDA concentration (μM).
Test [8] concerns HaCaT cells. Description: Reduced glutathione (GSH) quantification. In kind it is cell-based, human. The method, then:
as §2, §5

The subject of test [9] is SK-MEL-1 cells. Description: Reduced glutathione (GSH) quantification. In kind it is cell-based, human. The conditions noted are these: SK-MEL-1 pre-treated cells. On the procedure: as §2, §5
Test [10] relates to HaCaT cells. Description: ATP bioluminescent assay (Cell Titer-Glo). It counts as cell-based, human. The conditions noted are these: for ATP vs control cell levels: 24 h pre-exposure, UVB irradiated cells. The method, then:
as §2
The ATP bioluminescent assay was used to quantify cellular ATP. The Cell Titer-Glo® assay (Promega, Madison, WI, USA) was carried out according to the manufacturer’s instructions. Cells were seeded in a white microtitre plate (20,000 cells per well) to which the ATP Cell Titer-Glo® Reagent was added (50 μL). The plate was incubated for 30 min at room temperature (RT) in the dark. Luminescence was measured on a Multiskan Spectrum plate reader (Thermo Fisher Scientific, Waltham, MA, USA). Luminescence is proportional to ATP levels and expressed as relative light units (RLU).

Where [11] appears, read: light or radiation study, UVB irradiation after pre-treatment 4 h.
Setting [12] is: light or radiation study, UVB irradiation after pre-treatment 24 h.
Setting [13] is: SK-MEL-1, SK-MEL-1, No UV, pre-treatment 4 h.
[14] abbreviates: SK-MEL-1, SK-MEL-1, No UV, pre-treatment 24 h.
Where [15] appears, read: SK-MEL-1, light or radiation study, SK-MEL-1, UVB irradiation after pre-treatment 4 h.
The mark [16] stands for this setting: SK-MEL-1, light or radiation study, SK-MEL-1, UVB irradiation after pre-treatment 24 h.

As for `O=C(CCc1ccc(O)c(O)c1)c1c(O)cc(O)c(C2OC(CO)C(O)C(O)C2O)c1O` (stereo not drawn) [Compound 2, aspalathin], the IC50 in the test on HaCaT cells [1] (No UV, pre-treatment 4 h) was determined as 209 mg/L (≈ 462 µM); with HaCaT cells [1] (No UV, pre-treatment 24 h) it was 122 mg/L (≈ 270 µM); in the test with HaCaT cells [1] (setting [11]) it was 399 mg/L (≈ 882 µM); with HaCaT cells [1] (setting [12]), 145 mg/L (≈ 321 µM); in the test with SK-MEL-1 cells [2] (setting [13]) it was 93.6 mg/L (≈ 207 µM); in the test on SK-MEL-1 cells [2] (setting [14]), 66.4 mg/L (≈ 147 µM). Moreover, the concentration for half-maximal inhibition (IC50) in the test with SK-MEL-1 cells [2] (setting [15]) was determined as 72.2 mg/L (≈ 160 µM); in the test with SK-MEL-1 cells [2] (setting [16]), 70 mg/L (≈ 155 µM). Also, in the test on SK-MEL-1 cells [3], the “ATP in UVB irradiated vs non-UVB irradiated cells” value is on record as “significantly increase ATP to above levels observed in non-UVB irradiated cells”. The “caspase 3/7 activation” value with HaCaT cells [4] and in the test on SK-MEL-1 cells [5] was “inhibited the activation of executioner caspases in a dose-dependent manner” in each case. Further, the “MDA levels (lipid peroxidation)” value in the test on HaCaT cells [6] (24-h pre-treatment, after UVB exposure) was “significant (p < 0.05) reduction in MDA levels at all tested concentrations”; in the test on SK-MEL-1 cells [7], “significant (p < 0.05) reduction in MDA levels at all tested concentrations”. In addition, the GSH content entry in the test on HaCaT cells [8] (pre-treatment 4 h, UVB exposed and non-exposed cells) is “only active at the lowest concentration tested”. Besides, the GSH levels result in the test on HaCaT cells [8] (pre-treatment 24 h) is recorded as “only active at the lowest concentration tested”. In addition, the “GSH levels, resistance to UVB irradiation” value in the test with SK-MEL-1 cells [9] was “improved GSH levels”.

As for `O=C(CCc1ccc(O)c(O)c1)c1c(O)cc(O)c2c1OC1(C2)O[C@@H](CO)[C@H](O)[C@H]1O` (relative stereo) [Compound 1, linearthin], the 50% inhibitory concentration (IC50) came to 117 mg/L (≈ 269 µM) with HaCaT cells [1] (No UV, pre-treatment 4 h); 105 mg/L (≈ 242 µM) in the test on HaCaT cells [1] (No UV, pre-treatment 24 h); 266 mg/L (≈ 612 µM) with HaCaT cells [1] (setting [11]); 282 mg/L (≈ 649 µM) with HaCaT cells [1] (setting [12]); 330 mg/L (≈ 759 µM) in the test with SK-MEL-1 cells [2] (setting [13]); 124 mg/L (≈ 285 µM) in the test on SK-MEL-1 cells [2] (setting [14]). Also, the half-maximal inhibitory concentration (IC50) turned out to be 248 mg/L (≈ 572 µM) with SK-MEL-1 cells [2] (setting [15]) and 143 mg/L (≈ 328 µM) with SK-MEL-1 cells [2] (setting [16]). Besides, in the test with HaCaT cells [10], the “ATP vs control cell levels” value was “maintain ATP above control cell levels”. Further, the “caspase 3/7 activation” value with HaCaT cells [4] and in the test on SK-MEL-1 cells [5] was “inhibited the activation of executioner caspases in a dose-dependent manner” throughout. In the test with HaCaT cells [6] (4-h pre-treatment, UVB exposed, vs cells with no isolate intervention), the “MDA levels (lipid peroxidation)” value was “only the lowest concentration reduced MDA significantly”. For the same molecule, in the test with HaCaT cells [6] (lowest concentration, 4-h pre-treatment, cell line not given), the “MDA formation by UVB vs cells not exposed to UVB” value is recorded as “circumvent MDA formation by UVB to below levels observed in cells not exposed to UVB”.

As for `O=C(CCc1ccc(O)cc1)c1c(O)cc(O)c(C2OC(CO)C(O)C(O)C2O)c1O` (stereo not drawn) [Compound 3, nothofagin], the half-maximal inhibitory concentration (IC50) turned out to be 144 mg/L (≈ 330 µM) in the test on HaCaT cells [1] (No UV, pre-treatment 4 h); 123 mg/L (≈ 282 µM) with HaCaT cells [1] (No UV, pre-treatment 24 h); 196 mg/L (≈ 450 µM) in the test on HaCaT cells [1] (setting [11]); 164 mg/L (≈ 376 µM) in the test with HaCaT cells [1] (setting [12]); 208 mg/L (≈ 477 µM) in the test on SK-MEL-1 cells [2] (setting [13]); 210 mg/L (≈ 482 µM) in the test on SK-MEL-1 cells [2] (setting [14]). Moreover, the IC50 with SK-MEL-1 cells [2] (setting [15]) worked out at 119 mg/L (≈ 273 µM); with SK-MEL-1 cells [2] (setting [16]) it was 123 mg/L (≈ 282 µM). For the same molecule, the “ATP in UVB irradiated vs non-irradiated cells” value with HaCaT cells [10] (100 µg/mL) is reported as “increase ATP in UVB irradiated cells to above levels observed in non-irradiated cells”. Besides, the “ATP vs control cell levels” value in the test on HaCaT cells [10] is on record as “maintain ATP above control cell levels”. In the test on SK-MEL-1 cells [3], the “ATP in UVB irradiated vs non-UVB irradiated cells” value is recorded as “significantly increase ATP to above levels observed in non-UVB irradiated cells”. Moreover, the “caspase 3/7 activation” value in the test with HaCaT cells [4] and in the test on SK-MEL-1 cells [5] was “inhibited the activation of executioner caspases in a dose-dependent manner” throughout.
